The source of these data is PMC7961521 (2021).

For experiment [1], the system named is 3G (DNA, G4) TTAGGGTTAGGGTTAGGGTTACCTAGGCATCCTCCAGTTCCTGGAGTCAGTG
Nature of the experiment: fluorescence, reporter dye in displacement assay. To be noted: 100 mM KCl; 10 mM Tris-HCl pH 7.2; dye 1 µM, DNA 0.5 µM.

Experiment [2] deals with 4G template annealed to primer P31 (DNA, G4) AGGGTTAGGGTTAGGGTTAGGGTTACCTAGGCATCCTCCAGTTCCTGGAGTCAGTG/CACTGACTCCAGGAACTGGAGGATGCCTAGG
The experiment in a line: Taq polymerase stop assay. The note with it: 100 mM KCl, Mg2+; Tris-HCl pH 8.0; 0 to 100 µM ligand; extension at 40 °C.

For experiment [3], the system named is RG4 (RNA, G4) AAGGAAGGGGAAGUCAGGUGGGGCCUGGGGAACCAGGAAGCGGGGAACAGG
Nature of the experiment: fluorescence Job's plot. To be noted: 100 mM KCl; 1×PBS pH 7.4, 37 °C; total concentration 5 µM.

Experiment [4] has as its system 3G template annealed to primer P31 (DNA, G4) TTAGGGTTAGGGTTAGGGTTACCTAGGCATCCTCCAGTTCCTGGAGTCAGTG/CACTGACTCCAGGAACTGGAGGATGCCTAGG
The experiment in a line: Taq polymerase stop assay. To be noted: 100 mM KCl, Mg2+; Tris-HCl pH 8.0; 0 to 100 µM ligand; extension at 40 °C.

Experiment [5] concerns H50 template annealed to primer H50/c49 (DNA, G4) AGGGTTAGGGTTAGGGTTAGGGGCCACCGCAATTGCTATAGTGAGTCGT/ACGACTCACTATAGCAATTGCG
Nature of the experiment: Taq polymerase stop assay. To be noted: 100 mM KCl, Mg2+; Tris-HCl pH 8.0; extension at 40 °C.

The subject of experiment [6] is 4G (DNA, G4) AGGGTTAGGGTTAGGGTTAGGGTTACCTAGGCATCCTCCAGTTCCTGGAGTCAGTG
Nature of the experiment: fluorescence Job's plot. To be noted: 100 mM KCl; 1×PBS pH 7.4, 37 °C; total concentration 5 µM.

For experiment [7], the system named is c49 (C49) template annealed to primer H50/c49 (DNA, G4) TGAGGGTGGGGAGGGTGGGGAAGCCACCGCAATTGCTATAGTGAGTCGT/ACGACTCACTATAGCAATTGCG
The experiment in a line: Taq polymerase stop assay. The note with it: 100 mM KCl, Mg2+; Tris-HCl pH 8.0; extension at 50 °C.

Experiment [8] relates to 4G (DNA, G4) AGGGTTAGGGTTAGGGTTAGGGTTACCTAGGCATCCTCCAGTTCCTGGAGTCAGTG
The experiment in a line: fluorescence, reporter dye in displacement assay. To be noted: 100 mM KCl; 10 mM Tris-HCl pH 7.2; dye 1 µM, DNA 0.5 µM.

For experiment [9], the system named is 3G (DNA, G4) TTAGGGTTAGGGTTAGGGTTACCTAGGCATCCTCCAGTTCCTGGAGTCAGTG
Nature of the experiment: fluorescent dye displacement. To be noted: 100 mM KCl; 10 mM Tris-HCl pH 7.2; B6,5 1 µM displaced; 0.5 µM nucleic acid.

In experiment [10] the test system is 4G (DNA, G4) AGGGTTAGGGTTAGGGTTAGGGTTACCTAGGCATCCTCCAGTTCCTGGAGTCAGTG
The experiment in a line: fluorescent dye displacement. The note with it: 100 mM KCl; 10 mM Tris-HCl pH 7.2; B6,5 1 µM displaced; 0.5 µM nucleic acid.

The test system of experiment [11] is RG4 (RNA, G4) AAGGAAGGGGAAGUCAGGUGGGGCCUGGGGAACCAGGAAGCGGGGAACAGG
Nature of the experiment: fluorescent dye displacement. To be noted: 100 mM KCl; 10 mM Tris-HCl pH 7.2; B6,5 1 µM displaced; 0.5 µM nucleic acid; 1 equivalent of ligand.

As for `C1=C2Sc3ccccc3N2CCCCCCN2C(=C/C=C/C=C/c3sc4ccccc4[n+]3CCCCCC[n+]3c(sc4ccccc43)/C=C/C=C/1)Sc1ccccc12`, the binding entry in experiment [1], in experiment [2], in [3], in experiment [4], in [5] and in experiment [6] was “yes” in each case. Besides, the binding entry in experiment [7] was “yes”.

Regarding `CN1C(=Cc2cc[n+](C)c3ccccc23)Sc2ccccc21`, the binding result in experiment [1] and in [8] was “yes” throughout.

For the compound `CN1CCC[C@H]1CCNC(=O)c1cn2c3c(c(N4CCC(c5cnccn5)C4)c(F)cc3c1=O)Oc1cc3ccccc3cc1-2` (some centres unmarked), the binding entry in experiment [9] and in experiment [10] was “yes” in each case. For the same compound, in experiment [11], the “% displacement of B6,5” value is above 60%.

For `C[n+]1ccc(-c2c3nc(c(-c4cc[n+](C)cc4)c4ccc([nH]4)c(-c4cc[n+](C)cc4)c4nc(c(-c5cc[n+](C)cc5)c5ccc2[nH]5)C=C4)C=C3)cc1`, the binding entry in [9] and in [10] was “yes” in each case. For the same compound, the “% displacement of B6,5” value in experiment [11] was above 60%.

Consider `O=C(/C=C/C=C/c1ccc2c(c1)OCO2)N1CCCCC1`, for which the binding entry in experiment [9] is recorded as “weak”; in experiment [10], “yes”.

With `O=C(c1cc(Cc2n[nH]c(=O)c3ccccc23)ccc1F)N1CCN(C(=O)C2CC2)CC1`, the binding entry in experiment [9] is given as “weak”; in experiment [10] it was “yes”. Further, the “% displacement of B6,5” value in experiment [11] is on record as above 60%.
